Numbered stars: 1 amine (or outer) side, 2 acyl side, 3 side chain; on linkers, the order of the positions; unused ones are H or OH. Square brackets hold non-standard residues; d marks the D form. Peptide text beside a SMILES is read from it. X1 = CC[C@@H](C)[C@@H](O[*:1])C(=O)[*:2]; NMeVal(β-OH) = CN[C@H](C(=O)O)C(C)(C)O; NMeF = CN[C@@H](Cc1ccccc1)C(=O)O; aIle = CC[C@@H](C)[C@H](N)C(=O)O; NMeV = CN[C@H](C(=O)O)C(C)C

Here are results for five molecules from US10443078B2, “Pichia kudriavzevii NG7 microorganism and uses thereof” (Korea Research Institute of Bioscience and Biotechnology, priority 2014, dated 2019).

What all share (assay): Antibiotic resistance of isolated microorganisms on YPD solid medium
What all share (settings): zeocin, G418, nourseothricin, hygromycin 100 μg/mL, cycloheximide 1 μg/mL, aureobasidin A 0.1 μg/mL, 30° C.

One assay deals with NG1 microorganism. It is filed as cell-based, Issatchenkia occidentalis. On the procedure:
(§1) The antibiotic resistance of the selected three different kinds of microorganisms to various antibiotics was examined. The antibiotics used were zeocin (100 μg/mL), G418 (100 μg/mL), cycloheximide (1 μg/mL), aureobasidin A (0.1 μg/mL), nourseothricin (100 μg/mL), and hygromycin (100 μg/mL). Each of the cell cultures of the isolated microorganisms was dotted on YPD solid medium (yeast extract (1%), peptone (2%), glucose (2%), and agar (2%)) and cultured at 30° C.

Another assay concerns NG7 microorganism. It is filed as cell-based, Pichia kudriavzevii. On the procedure: as §1
A further assay has as its system 2-2 microorganism. It is filed as cell-based, Pichia kudriavzevii. On the procedure:
as §1

With `Cc1c(N)nc([C@H](CC(N)=O)NC[C@H](N)C(N)=O)nc1C(=O)N[C@H](C(=O)N[C@H](C)[C@@H](O)[C@H](C)C(=O)N[C@H](C(=O)NCCC1=N[C@@H](c2nc(C(=O)NCCCCN=C(N)N)cs2)CS1)[C@@H](C)O)[C@@H](O[C@@H]1O[C@@H](CO)[C@@H](O)[C@H](O)[C@@H]1O[C@H]1O[C@H](CO)[C@@H](O)[C@H](OC(N)=O)[C@@H]1O)c1cnc[nH]1` [Zeocin, zeocin], the “Resistance of microorganism NG1 to antibiotic” value (“Resistance of microorganism NG1” for short) with NG1 microorganism is on record as “+”; with NG1 microorganism (listed as zeocin), “resistance”. Also, the “Resistance of microorganism NG7 to antibiotic” value (from here on “Resistance of microorganism NG7”) with NG7 microorganism is on record as “+”; in the assay on NG7 microorganism (listed as zeocin) it was “resistance”. For the same molecule, the “Resistance of microorganism 2-2 to antibiotic” value is given as “+” in the assay on 2-2 microorganism and “resistance” in the assay with 2-2 microorganism (listed as zeocin).

Take `CN[C@@H]1[C@@H](O)[C@@H](O[C@@H]2[C@@H](O)[C@H](O[C@H]3O[C@H]([C@@H](C)O)[C@@H](O)[C@H](O)[C@H]3N)[C@@H](N)C[C@H]2N)OC[C@]1(C)O` [G418]: the “Resistance of microorganism NG1” value with NG1 microorganism was “resistance and +”. Also, the “Resistance of microorganism NG7” value in the assay on NG7 microorganism is “resistance and +”. Also, the “Resistance of microorganism 2-2 to antibiotic” value with 2-2 microorganism was “resistance and +”.

For `C[C@@H]1C[C@@H]([C@H](O)CC2CC(=O)NC(=O)C2)C(=O)[C@@H](C)C1` [Cycloheximide, cycloheximide], the “Resistance of microorganism NG1” value in the assay with NG1 microorganism is “+”; in the assay with NG1 microorganism (listed as cycloheximide), “resistance”. Moreover, the “Resistance of microorganism NG7” value is reported as “+” with NG7 microorganism and “resistance” with NG7 microorganism (listed as cycloheximide). Besides, the “Resistance of microorganism 2-2 to antibiotic” value is reported as “+” with 2-2 microorganism and “resistance” with 2-2 microorganism (listed as cycloheximide).

For nourseothricin, the “Resistance of microorganism NG1” value in the assay with NG1 microorganism was “−”; in the assay on NG1 microorganism (listed as nourseothricin) it was “no resistance”. Further, the “Resistance of microorganism NG7” value is reported as “−” in the assay on NG7 microorganism and “no resistance” in the assay on NG7 microorganism (listed as nourseothricin). The figures for the “Resistance of microorganism 2-2 to antibiotic” value in the assay with 2-2 microorganism and in the assay with 2-2 microorganism (listed as nourseothricin) were “−” and “no resistance”, respectively.

On to `CC[C@@H](C)[C@@H]1NC(=O)[C@@H]2CCCN2C(=O)[C@H](Cc2ccccc2)N(C)C(=O)[C@H](Cc2ccccc2)NC(=O)[C@H](C(C)C)N(C)C(=O)[C@@H]([C@H](C)CC)OC(=O)[C@H](C(C)(C)O)N(C)C(=O)[C@H](CC(C)C)NC(=O)[C@H](C(C)C)N(C)C1=O` [Aureobasidin A, aureobasidin A] (cyclo(F[NMeF]P[aIle][NMeV]L[NMeVal(β-OH)][X1][NMeV])), for which the “Resistance of microorganism NG1” value in the assay on NG1 microorganism was “−”; with NG1 microorganism (listed as aureobasidin A), “no resistance”. Further, the “Resistance of microorganism NG7” value in the assay with NG7 microorganism was “−”; in the assay with NG7 microorganism (listed as aureobasidin A), “no resistance”. The results for the “Resistance of microorganism 2-2 to antibiotic” value with 2-2 microorganism and in the assay with 2-2 microorganism (listed as aureobasidin A) were “−” and “no resistance”, respectively.
